Experimental data as given in patent US20130316985A1, “GPR35 Ligands And Uses Thereof” (CORNING INCORPORATED, priority 2012, published 2013).
“Also recorded” adds a separate entry of the source. Like-named read-outs stand apart in the source and are kept apart here. Each block holds one compound with its values, some of them ahead of it.

Columns and labels:
GPR35 [1] = target: T1, GPR35 (Homo sapiens, UniProt Q9HC97); experiment: cell-based
GPR35 [2] = target: T1, GPR35; experiment: Tango β-arrestin translocation gene reporter assay in U2OS-GPR35-bla cells; assay type: cell-based; design: TEV protease site (C); Gal4-VP16 transcription factor (C); conditions: for EC50: read-out: Potency EC50, Tango; for β-arrestin translocation (Tango) signal (in words): 2,3-DNP up to 1 mM, 3,4-DNP at 1 mM
GPR35 [3] = target: T1, GPR35
GPR35 [4] = target: T1, GPR35; remark: listed apart in the source
GPR35 [5] = target: T1, GPR35; experiment: DMR agonism assay in native HT-29 cells (Epic optical biosensor); conditions: for DMR signal in HT-29 cells (in words): agonism mode
GPR35 [6] = target: T1, GPR35; conditions: U2OS-GPR35-bla
[7] = U2OS-GPR35-bla cells, β-arrestin translocation, mean ± s.d.
[8] = HT-29, ML-145 at different doses 10 min before agonist at fixed dose
[9] = maximal response normalized to the zaprinast maximal response
[10] = maximal DMR response in HT-29 (2,5-DNP: amplitude at 50 min)
[11] = U2OS-GPR35-bla, zaprinast maximal response in same plate = 100%, read-out: efficacy (Tango, normalized to maximal response of zaprinast)
[12] = maximal response normalized to the zaprinast maximal response, read-out: Efficacy Tango

T1 sequence (Q9HC97 whole entry, the tested form may be a part): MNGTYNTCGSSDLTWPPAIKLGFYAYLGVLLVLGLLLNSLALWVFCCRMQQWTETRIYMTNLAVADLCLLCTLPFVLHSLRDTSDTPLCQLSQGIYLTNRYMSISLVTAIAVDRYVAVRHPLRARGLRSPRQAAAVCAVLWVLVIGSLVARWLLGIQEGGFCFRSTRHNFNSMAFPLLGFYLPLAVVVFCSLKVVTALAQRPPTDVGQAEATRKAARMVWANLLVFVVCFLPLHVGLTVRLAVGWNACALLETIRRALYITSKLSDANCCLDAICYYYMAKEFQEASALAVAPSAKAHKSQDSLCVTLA

EC50 (GPR35 [1]): 2.59 µM | agonist type compared to zaprinast, based on maximal responses in Tango assays (GPR35 [2]; U2OS-GPR35-bla): full agonists | EC50 (GPR35 [2]; [7]): 46.2 µM
SMILES: O=C(O)CCNC(=O)c1ccc(/N=N/c2ccc(O)c(C(=O)O)c2)cc1 [balsalazide]

EC50 (GPR35 [3]): 8.66 µM | inhibition of the agonist-induced DMR by ML-145 (in words) (GPR35 [4]; [8]): partially inhibited | EC50 (GPR35 [2]; [7]): 54.4 µM | efficacy (Tango, normalized to maximal response of zaprinast) (GPR35 [2]; U2OS-GPR35-bla, zaprinast maximal response in same plate = 100%): 13% | Efficacy Tango (GPR35 [2]; [9]): 13 ± 1 % zaprinast | Efficacy DMR (GPR35 [5]; [10]): 257 ± 16 pm
SMILES: O=C(c1cc(O)c(O)c([N+](=O)[O-])c1)c1ccccc1F [Ro41-0960]

EC50 (GPR35 [2]; [7]): 1.26 µM | agonist type compared to zaprinast, based on maximal responses in Tango assays (GPR35 [2]; U2OS-GPR35-bla, listed as olasalazine): full agonists | EC50 (GPR35 [5]): 0.0218 µM
SMILES: O=C(O)c1cc(/N=N/c2ccc(O)c(C(=O)O)c2)ccc1O (single isomer, unassigned) [olsalazine]

inhibition of the agonist-induced DMR by ML-145 (in words) (GPR35 [4]; [8]): can be blocked by ML-145 | β-arrestin translocation (Tango) signal (in words) (GPR35 [2]; U2OS-GPR35-bla): trigger Tango signal | DMR signal in HT-29 cells (in words) (GPR35 [5]): active | block of the agonist-induced Tango signal by ML-145 (in words) (GPR35 [6]): can be blocked by ML-15
SMILES: Oc1cccc(O)c1O [pyrogallol]

SMILES: Cc1ccc(C(=O)c2cc(O)c(O)c([N+](=O)[O-])c2)cc1 [Tolcapone, 3,4-dihydroxy-4′-methyl-5-nitrobenzophenone]
EC50 (GPR35 [3]): 7.44 µM | inhibition of the agonist-induced DMR by ML-145 (in words) (GPR35 [4]; [8]): partially inhibited | inhibition of the agonist-induced DMR by ML-145 (in words) (GPR35 [4]; HT-29, ML-145 at different doses 10 min before agonist at fixed dose, listed as tolcapone): partial inhibition | EC50 (GPR35 [2]; [7]): 49.2 µM | Emax (GPR35 [2]; [11]): 25% | Emax (GPR35 [2]; [12]): 25 ± 2% | DMR signal in HT-29 cells (in words) (GPR35 [5]): positive DMR with an early peak followed by a small decay to another elevated plateau | Efficacy DMR (GPR35 [5]; [10]): 400 ± 33 pm

Emax (GPR35 [2]; [11]): 6% | Emax (GPR35 [2]; [12]): 6 ± 1%
SMILES: CCN(CC)C(=O)/C(C#N)=C/c1cc(O)c(O)c([N+](=O)[O-])c1 [Entacapone]

Emax (GPR35 [2]; [11]): 100% | Efficacy Tango (GPR35 [2]; [9]): 100 ± 9 % zaprinast | Efficacy DMR (GPR35 [5]; [10]): 254 ± 14 pm
SMILES: CCCOc1ccccc1-c1nc(=O)c2[nH]nnc2[nH]1 [Zaprinast]

inhibition of the agonist-induced DMR by ML-145 (in words) (GPR35 [4]; [8]): can be blocked by ML-145 | β-arrestin translocation (Tango) signal (in words) (GPR35 [2]; U2OS-GPR35-bla): trigger Tango signal | DMR signal in HT-29 cells (in words) (GPR35 [5]): active | block of the agonist-induced Tango signal by ML-145 (in words) (GPR35 [6]): can be blocked by ML-15
SMILES: CCCCCCCCOC(=O)c1cc(O)c(O)c(O)c1 [octyl gallate]

inhibition of the agonist-induced DMR by ML-145 (in words) (GPR35 [4]; [8]): can be blocked by ML-145 | β-arrestin translocation (Tango) signal (in words) (GPR35 [2]; U2OS-GPR35-bla): trigger Tango signal | DMR signal in HT-29 cells (in words) (GPR35 [5]): active | block of the agonist-induced Tango signal by ML-145 (in words) (GPR35 [6]): can be blocked by ML-15
SMILES: COc1cccc(O)c1O [3-methoxycatechol]

SMILES: O=[N+]([O-])c1cc(O)c(O)c([N+](=O)[O-])c1 [3,5-dinitrocatechol]
EC50 (GPR35 [2]): 123 µM

SMILES: O=[N+]([O-])c1ccc(O)c([N+](=O)[O-])c1 [2,4-DNP, 2,4-dinitrophenol]
inhibition of the agonist-induced DMR by ML-145 (in words) (GPR35 [4]): partial inhibition; also recorded: partially inhibited | Emax (GPR35 [2]; read-out: Efficacy Tango): 28 ± 1% | EC50 (GPR35 [2]): 272 µM | Emax (GPR35 [2]; read-out: efficacy (Tango, normalized to maximal response of zaprinast)): 28% | Efficacy DMR (GPR35 [5]): 249 ± 17 pm

EC50 (GPR35 [1]): 14.7 µM | agonist type compared to zaprinast, based on maximal responses in Tango assays (GPR35 [2]; U2OS-GPR35-bla): weak partial agonist | EC50 (GPR35 [2]; [7]): 545 µM
SMILES: Nc1ccc(O)c(C(=O)O)c1 [Compound 5-ASA, 5-aminosalicylic acid]

inhibition of the agonist-induced DMR by ML-145 (in words) (GPR35 [4]; [8]): can be blocked by ML-145 | β-arrestin translocation (Tango) signal (in words) (GPR35 [2]; U2OS-GPR35-bla): trigger Tango signal | DMR signal in HT-29 cells (in words) (GPR35 [5]): active | block of the agonist-induced Tango signal by ML-145 (in words) (GPR35 [6]): can be blocked by ML-15
SMILES: CCCOC(=O)c1cc(O)c(O)c(O)c1 [propyl gallate]

agonist type compared to zaprinast, based on maximal responses in Tango assays (GPR35 [2]; U2OS-GPR35-bla): strong partial agonist | EC50 (GPR35 [2]; [7]): 1.7 µM | EC50 (GPR35 [5]): 0.00209 µM
SMILES: O=C(O)c1cc(/N=N/c2ccc(O)c(C(=O)O)c2)ccc1O [Bi-ASA, (E)-(5,5-diazene-1,2-diyl)bis(2-hydroxybenzoic acid)]

EC50 (GPR35 [1]): 2.99 µM | agonist type compared to zaprinast, based on maximal responses in Tango assays (GPR35 [2]; U2OS-GPR35-bla): partial agonist | EC50 (GPR35 [2]; [7]): 31.3 µM
SMILES: O=C(O)c1cc(/N=N/c2ccc(S(=O)(=O)Nc3ccccn3)cc2)ccc1O [sulfasalazine]
